Read-outs that look alike come from different tables or passages of the source.
Assays:
[1] = system: 80S14 (p21-deficient) cells; assay: Cytotoxicity assay using isogenic cell lines: IC50 in 80S14 (p21-deficient) cells, SRB; type: cell-based, human
Procedure, shortened: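 IC50 is the concentration halving proliferation relative to untreated controls, read from SRB absorbance (560 nm) after TCA fixation. Test agent dilutions (5 pM–50 μM or 170 pg/ml–10 μg/ml) were left on p21-deficient 80S14 cells (12,000/well, pre-incubated overnight) for 5 days at 37 °C.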

LoVo Colon cell line = assay: Cytotoxicity assay using LoVo colon cell line, SRB; type: cell-based; conditions: read-out: Inhibition of LoVo
Procedure, shortened: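 Growth inhibition read by sulforhodamine B after 4-day compound exposure at 37 °C. Colon LoVo cells plated at 4000 per well in RPMI/10% FBS a day earlier; doses ranged 5 pM-20 μM or 170 pg/ml-10 μg/ml. IC50 is the concentration halving proliferation versus untreated wells.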

[2] = Homo sapiens, 120 h, 80S14 (p21-deficient) cells, 5 days, SRB, class symbols, read-out: IC50 for 80S14
[3] = Homo sapiens, 96 h, Cellular activity in LoVo cell, 4 days incubation, SRB
[4] = Homo sapiens, 96 h, LoVo colon cells, 4 days incubation, SRB
[5] = Homo sapiens, 120 h, 80S14 p21-deficient cells, 5 days incubation, SRB, read-out: IC50 for 80SI4

SMILES	IC50 [1, 2]	IC50 (LoVo Colon cell line; [3])	further results
CC(C)NC(=N)Nc1cccc(-c2ccnc3c(C(=O)c4cccs4)cnn23)c1 [Example 411, N-Isopropyl-N′-{3-[3-(thien-2-ylcarbonyl)pyrazolo[1,5-a]pyrimidin-7-yl]phenyl}guanidine]	10 to 50 µM		melting point: > 200 °C
O=C(CCCN1CCOCC1)Nc1cccc(-c2ccnc3c(C(=O)c4cccs4)cnn23)c1 [Example 423, 4-Morpholin-4-yl-N-{3-[3-(thien-2-ylcarbonyl)pyrazolo[1,5-a]pyrimidin-7-yl]phenyl}butanamide]	1 to 10 µM	100 to 1000 nM	
CN(C)c1ccc(-c2cc(-c3ccnc4c(C(=O)c5cccs5)cnn34)ccc2F)cc1 [Example 454, {7-[4′-(Dimethylamino)-6-fluoro-1,1′-biphenyl-3-yl]pyrazolo[1,5-a]pyrimidin-3-yl}(thien-2-yl)methanone]	1 to 10 µM	100 to 1000 nM	
CCCCC(=O)Nc1cccc(-c2ccnc3c(C(=O)c4cccs4)cnn23)c1 [Example 152, N-3{3-[3-(thien-2-ylcarbonyl)pyrazolo[1,5-a]pyrimidin-7-yl]phenyl}pentanamide]			IC50 (LoVo Colon cell line; LoVo colon cells, 4 days incubation, SRB): < 100 nM; IC50 ([1]; 80S14 p21-deficient cells, 5 days incubation, SRB, read-out: IC50 for 80SI4): < 1 µM
COc1ccc(-c2cnn3c(-c4cccc(NC(=O)CC(C)C)c4)ccnc23)cc1 [Example 470, N-{3-[3-(4-Methoxyphenyl)pyrazolo[1,5-a]pyrimidin-7-yl]phenyl}-3-methylbutanamide]	10 to 50 µM	1000 to 20000 nM	
O=C(Nc1cccc(-c2ccnc3c(C(=O)c4cccs4)cnn23)c1)c1ccco1 [Example 285, N-{3-[3-(2-Thienylcarbonyl)pyrazolo[1,5-a]pyrimidin-7-yl]phenyl}-2-furamide]	< 1 µM	< 100 nM	
O=C(c1nccs1)c1cnn2c(-c3cccc(NC(=O)C4CC4)c3)ccnc12 [Example 338, N-{3-[3-(1,3-Thiazol-2-ylcarbonyl)pyrazolo[1,5-a]pyrimidin-7-yl]phenyl}cyclopropanecarboxamide]	1 to 10 µM	100 to 1000 nM	
COc1cccc(-c2cnn3c(-c4cccc(NC(=O)CC(C)C)c4)ccnc23)c1 [Example 478, N-{3-[3-(3-Methoxyphenyl)pyrazolo[1,5-a]pyrimidin-7-yl]phenyl}-3-methylbutanamide]	10 to 50 µM	1000 to 20000 nM	
Cc1cc(-c2cccc(NC(=O)CC(C)C)c2)n2ncc(C(=O)c3cccs3)c2n1 [Example 201, 3-methyl-N-{3-[5-methyl-3-(thien-2-ylcarbonyl)pyrazolo[1,5-a]pyrimidin-7-yl]phenyl}butanamide]			IC50 (LoVo Colon cell line; [4]): < 100 nM; IC50 [1, 5]: < 1 µM
O=C(Nc1cccc(-c2ccnc3c(C(=O)c4cccs4)cnn23)c1)OCc1ccccn1 [Example 429, Pyridin-2-ylmethyl 3-[3-(thien-2-ylcarbonyl)pyrazolo[1,5-a]pyrimidin-7-yl]phenylcarbamate]	1 to 10 µM	100 to 1000 nM	
CC(CCNc1cccc(-c2ccnc3c(C(=O)c4cccs4)cnn23)c1)CC(C)(C)C (stereo not shown) [Example 433, Thien-2-yl(7-{3-[(3,5,5-trimethylhexyl)amino]phenyl}pyrazolo[1,5-a]pyrimidin-3-yl)methanone]	1 to 10 µM	100 to 1000 nM	
O=C(Nc1cc(-c2ccnc3c(C(=O)c4cccs4)cnn23)ccc1Cl)c1ccccc1 [Example 312, N-{2-Chloro-5-[3-(2-thienylcarbonyl)pyrazolo[1,5-a]pyrimidin-7-yl]phenyl}benzamide]	< 1 µM	< 100 nM	
Cc1cc(-c2cccc(NC(=O)c3ccccc3)c2)n2ncc(C(=O)c3cccs3)c2n1 [Example 202, N-{3-[5-methyl-3-(thien-2-ylcarbonyl)pyrazolo[1,5-a]pyrimidin-7-yl]phenyl}benzamide]			IC50 (LoVo Colon cell line; [4]): 100 to 1000 nM; IC50 [1, 5]: 10 to 50 µM
CCCCOC(=O)Nc1cccc(-c2ccnc3c(C(=O)c4cccs4)cnn23)c1 [Example 13, butyl 3-[3-(thien-2-ylcarbonyl)pyrazolo[1,5-a]pyrimidin-7-yl]phenylcarbamate]			IC50 (LoVo Colon cell line; Homo sapiens, LoVo, 96 h): < 100 nM; IC50 ([1]; Homo sapiens, 80S14, 120 h, read-out: IC50 for 80SI4 (uM)): < 1 µM
